Assay [1] concerns the target Recombinant Human NF-kappaB-Inducing Kinase (NIK/MAP3K14) (Homo sapiens (Human), UniProt Q99558). Nature of the assay: Inhibition of auto-phosphorylation of recombinant human NIK/MAP3K14 activity (AlphaScreen). Type of assay: biochemical. The settings on record: GST-tagged NIK/MAP3K14 0.2 nM, 25 microM ATP, 1 h at 25° C.; averaged over all measurements on all batches; read-out: Alpha-Screen IC50. On the procedure: Inhibition of Auto-Phosphorylation of Recombinant Human NF-kappaB-Inducing Kinase (NIK/MAP3K14) Activity (AlphaScreen®)
NIK/MAP3K14 auto-phosphorylation activity was measured using the AlphaScreen® (αscreen) format (Perkin Elmer). All compounds tested were dissolved in dimethyl sulfoxide (DMSO) and further dilutions were made in assay buffer. Final DMSO concentration was 1% (v/v) in assays. Assay buffer was 50 mM Tris pH 7.5 containing 1 mM EGTA (ethylene glycol tetraacetic acid), 1 mM DTT (dithiothreitol), 0.1 mM Na3VO4, 5 mM MgCl2, 0.01% Tween® 20. Assays were carried out in 384 well Alphaplates (Perkin Elmer). Incubations consisted of compound, 25 microM Adenosine-5′-triphosphate (ATP), and 0.2 nM NIK/MAP3K14. Incubations were initiated by addition of GST-tagged NIK/MAP3K14 enzyme, carried out for 1 h at 25° C. and terminated by addition of stop buffer containing anti-phospho-IKK Ser176/180 antibody. Protein A Acceptor and Glutathione-Donor beads were added before reading using an EnVision® Multilabel Plate Reader (Perkin Elmer). Signal obtained in the wells containing blank samples was subtracted from all other wells and IC50's were determined by fitting a sigmoidal curve to % inhibition of control versus Log10 compound concentration.
On the technique in general: In Alpha technology, singlet oxygen from a donor bead excites a nearby acceptor bead.

In assay [2] the test system is JJN-3 cells. Nature of the assay: Antiproliferative activity on JJN-3 cells (CellTiter-Glo). The assay is classed as cell-based. The settings on record: Homo sapiens, 72 hr treatment, averaged values. On the procedure:
(§1) Determination of Antiproliferative Activity on LP-1, L-363 and JJN-3 Cells
(§2) All compounds tested were dissolved in DMSO and further dilutions were made in culture medium. Final DMSO concentration was 0.3% (v/v) in cell proliferation assays. Viability was assessed using CellTiter-Glo cell viability assay kit (Promega). The human LP-1, L-363 and JJN-3 cells (DSMZ) were cultured in RPMI 1640 medium supplemented with 2 mM L-glutamine, and 10% fetal calf serum (PAA). Cells were routinely kept as suspension cells at 37° C. in a humidified 5% CO2 atmosphere. Cells were passaged at a seeding density of 0.2×10^6/ml twice a week. Cells were seeded in black tissue culture treated 96-well plates (Perkin Elmer). Densities used for plating ranged from 2,000 to 6,000 cells per well in a total volume of 75 μl medium. After twenty four hours, drugs and/or solvents were added (25 μl) to a final volume of 100 μl. Following 72 hr of treatment plates were removed from the incubator and allowed to equilibrate to room temperature for approx 10 min. 100 μl CellTiter-Glo reagent was added to each well that was then covered (Perkin Elmer Topseal) and shaken on plate shaker for 10 min. Luminescence was measured on a HTS Topcount (Perkin Elmer). Within an experiment, the results for each treatment were the mean of 2 replicate wells. For initial screening purposes, compounds were tested using a 9 point dilution curve (serial 1:3 dilutions). For each experiment, controls (containing no drug) and a blank incubation (containing cells read at the time of compound addition) were run in parallel. The blank value was subtracted from all control and sample values. For each sample, the mean value for cell growth (in relative light units) was expressed as a percentage of the mean value for cell growth of the control.
(In general: In ATP-based viability assays light output follows the ATP content of the culture.)

Assay [3] concerns L-363 cells. Nature of the assay: Antiproliferative activity on L-363 cells (CellTiter-Glo). Particulars: Homo sapiens, 72 hr treatment, averaged values. Type of assay: cell-based. On the procedure: as §1, §2
The test system of assay [4] is LP-1 cells. Nature of the assay: Antiproliferative activity on LP-1 cells (CellTiter-Glo). Particulars: Homo sapiens, 72 hr treatment, averaged values. The assay is classed as cell-based. On the procedure: as §1, §2
In assay [5] the test system is P-IKKα levels in L363 cells. Nature of the assay: Effect of compounds on P-IKKα levels in L363 cells. The assay is classed as cell-based. Particulars: Homo sapiens, L-363, BAFF stimulated, 2 hr treatment, Mesoscale sandwich immuno-assay, averaged values, read-out: IKKα Cellular IC50. The method, then:
Effect of Compounds on P-IKKα Levels in L363 Cells
All compounds tested were dissolved in DMSO and further dilutions were made in culture medium. Final DMSO concentration was 1% (v/v) in cell assays. The human L363 cells (ATCC) were cultured in RPMI 1640 medium supplemented with GlutaMax and 10% fetal calf serum (PAA). Cells were routinely maintained at densities of 0.2×10^6 cells per ml—1×10^6 cells per ml at 37° C. in a humidified 5% CO2 atmosphere. Cells were passaged twice a week splitting back to obtain the low density. Cells were seeded in 96 well plates (Nunc 167008) at 2×10^6 per ml media in a volume of 75 μl per well plus 25 μl 1 μg/ml recombinant human B-cell activating factor (BAFF/BLyS/TNFSF13B). Seeded cells were incubated at 37° C. in a humidified 5% CO2 atmosphere for 24 hr. Drugs and/or solvents were added (20 μl) to a final volume of 120 μl. Following 2 hr treatment plates were removed from the incubator and cell lysis was achieved by the addition of 30 μl 5× lysis buffer followed by shaking on a plate shaker at 4° C. for 10 min. At the end of this incubation lysed cells were centrifuged at 800×g for 20 min at 4° C. and the lysate was assessed for P-IKKα levels by sandwich immuno-assay carried out in anti-rabbit antibody coated Mesoscale plates. Within an experiment, the results for each treatment were the mean of 2 replicate wells. […]

Recombinant Human NF-kappaB-Inducing Kinase (NIK/MAP3K14), sequence (Q99558 whole entry): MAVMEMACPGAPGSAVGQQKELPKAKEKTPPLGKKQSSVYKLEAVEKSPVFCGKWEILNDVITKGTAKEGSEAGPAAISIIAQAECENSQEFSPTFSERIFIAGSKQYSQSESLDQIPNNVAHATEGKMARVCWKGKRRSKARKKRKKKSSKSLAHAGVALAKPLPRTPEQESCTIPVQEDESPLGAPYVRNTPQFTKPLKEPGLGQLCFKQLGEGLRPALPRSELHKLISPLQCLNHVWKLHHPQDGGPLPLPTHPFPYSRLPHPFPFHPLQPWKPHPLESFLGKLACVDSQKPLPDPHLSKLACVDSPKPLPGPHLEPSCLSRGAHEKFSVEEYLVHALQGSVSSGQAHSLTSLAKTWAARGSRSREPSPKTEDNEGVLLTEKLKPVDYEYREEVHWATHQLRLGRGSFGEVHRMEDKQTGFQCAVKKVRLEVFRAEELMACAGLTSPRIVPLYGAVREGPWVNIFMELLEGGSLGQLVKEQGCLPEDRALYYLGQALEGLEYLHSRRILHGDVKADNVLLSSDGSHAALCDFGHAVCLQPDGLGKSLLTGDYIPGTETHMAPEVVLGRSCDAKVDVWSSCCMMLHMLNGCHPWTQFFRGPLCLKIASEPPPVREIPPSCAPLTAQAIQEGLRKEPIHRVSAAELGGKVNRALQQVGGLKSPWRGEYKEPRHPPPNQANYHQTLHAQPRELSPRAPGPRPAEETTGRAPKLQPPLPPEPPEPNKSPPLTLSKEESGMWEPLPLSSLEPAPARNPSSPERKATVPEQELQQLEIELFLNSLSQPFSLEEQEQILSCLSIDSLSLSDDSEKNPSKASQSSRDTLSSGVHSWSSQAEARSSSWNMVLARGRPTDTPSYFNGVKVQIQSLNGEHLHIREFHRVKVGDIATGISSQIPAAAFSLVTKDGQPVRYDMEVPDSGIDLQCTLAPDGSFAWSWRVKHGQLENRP

For `[2H]C([2H])([2H])C(O)(C#Cc1cc2c(-c3nc(N)nc4cn(CC)nc34)cn(C3CN(C4CC4)C3)c2cn1)C([2H])([2H])[2H]` [Compound 12], in assay [1], the IC50 (in general, the concentration at which inhibition is half-maximal) was 84 nM. Also, the results for the EC50 in assay [2], in assay [3] and in assay [4] were 301 nM, 140 nM and 877 nM, respectively.
On the same counts, the results for `COCCCn1cc(-c2nc(N)nc3cn(C)nc23)c2cc(C#CC(C)(C)O)ncc21` [Compound 1] are 46 nM, 538 nM, 655 nM and 6780 nM.
The corresponding values for `CCn1cc2nc(N)nc(-c3cn(CCCOC)c4cc(F)c(C#CC(C)(O)C5CC5)cc34)c2n1` (stereo not shown) [Compound 3] are 992 nM, 182 nM, 246 nM and 845 nM.
As to `COCCCn1cc(-c2nc(N)nc3cn(C)nc23)c2cc(C#CC(C)(O)C3CC3)ncc21` (stereo not shown) [Compound 2], the IC50 in assay [1] was found to be 23 nM; in assay [5], 103 nM. Besides, the EC50 (in general, the concentration at which the effect is half-maximal) in assay [2] turned out to be 358 nM; in assay [3], 386 nM; in assay [4], 2960 nM.
Turning to `COCCCn1cc(-c2nc(N)nc3cn(C4CC4)nc23)c2cc(C#CC(C)(O)C3CC3)ncc21` (stereo not shown) [Compound 8], the IC50 in assay [1] amounted to 38 nM. The values for the EC50 in assay [2], in assay [3] and in assay [4] were 78 nM, 76 nM and 402 nM, respectively.
The corresponding values for `[2H]C([2H])([2H])C(O)(C#Cc1cc2c(-c3nc(N)nc4cn(CC)nc34)cn(CCCOC)c2cc1F)C([2H])([2H])[2H]` [Compound 4] are 65 nM, 102 nM, 69 nM and 244 nM.
On the same counts, the results for `[2H]C([2H])([2H])C(O)(C#Cc1cc2c(-c3nc(N)nc4cn(CC)nc34)cn(C3CN(CC4CC4)C3)c2cc1F)C([2H])([2H])[2H]` [Compound 7] are 60 nM, 95 nM, 53 nM and 202 nM.
The corresponding values for `[2H]C([2H])([2H])C(O)(C#Cc1cc2c(-c3nc(N)nc4cn(CC)nc34)cn(C3CCN(CC)C3)c2cc1F)C([2H])([2H])[2H]` (stereo not shown) [Compound 6] are 37 nM, 40 nM, 38 nM and 70 nM.
On to `[2H]C([2H])([2H])n1cc2nc(N)nc(-c3cn(C4CCN(CC)C4)c4cc(F)c(C#CC(O)(C([2H])([2H])[2H])C([2H])([2H])[2H])cc34)c2n1` (stereo not shown) [Compound 5], for which the IC50 in assay [1] stood at 112 nM. Further, the results for the EC50 in assay [2], in assay [3] and in assay [4] were 46 nM, 52 nM and 128 nM, respectively.
`CCn1cc2nc(N)nc(-c3cn(C4CN(C5CC5)C4)c4cnc(C#CC(C)(O)C5CC5)cc34)c2n1` (stereo not shown) [Compound 10]: in assay [1], the IC50 is 186 nM. Further, the EC50 in assay [2] came out at 406 nM; in assay [3], 241 nM; in assay [4], 788 nM.
As for `CCn1cc2nc(N)nc(-c3cn(CCCOC)c4cnc(C#CC(C)(O)C5CC5)cc34)c2n1` (stereo not shown) [Compound 9], the IC50 in assay [1] is 52 nM. Also, the EC50 is 217 nM in assay [2], 162 nM in assay [3] and 629 nM in assay [4].
On the same counts, the results for `[2H]C([2H])([2H])C(O)(C#Cc1cc2c(-c3nc(N)nc4cn(CC)nc34)cn(C3CN(CC4CC4)C3)c2cn1)C([2H])([2H])[2H]` [Compound 11] are 143 nM, 158 nM, 62 nM and 1180 nM.

The values above are taken from US10822342B2, “Pyrazolopyrimidine derivatives as NIK inhibitors” (Janssen Pharmaceutica NV, priority 2014, dated 2020).
